Holding throughout (format): physicochemical
Data set [1] is described as follows: Light fastness test of recorded image, carbon arc fade meter, 20 hours. Particulars: carbon arc 20 hours; for Light fastness Grade: JIS L-0841 blue scale. The source says: (§1) Each water-based ink composition was produced by preparing the liquids which contain the anthrapyridone compounds (dyestuff components) of No.2, No.5 and No.15 respectively and have a composition of Table 2 as shown below, and then filtering through 0.45 μm membrane filter.
(§2) By using an ink-jet printer (Trade name: PICTY80L, made by NEC KK), ink-jet recordings were done on four types of recording sheets: a plain paper (Printer paper A4, TLB5A4S made by Canon KK), a special paper A (Color BJ Paper LC101 made by Canon KK), a special paper B (Coated paper for color image jetting, STX73A4 made by Sharp KK), and a glossy film (Special glossy film, MJA4SP6 made by Seiko-Epson KK).
A carbon arc fade meter (by Suga Testing Machine Co.) was used to irradiate carbon arc on the recorded images for 20 hours. Grade was judged according to JIS L-0841 blue scale. A color difference (ΔE) between before and after the test was measured by the above color determination system.

Data set [2] in a line: Water fastness test of recorded paper, dipped into water, stirred for 2 min, air-dried. Conditions: water 2 min; for Water fastness Grade: JIS color fading grey scale.
Description: as §1, §2
A recorded paper was dipped into water in a beaker, stirred for 2 min, and air-dried. The change between before and after the test was judged by the JIS color fading grey scale. Alternatively, a color difference (ΔE) between before and after the test was measured by the above color determination system.

A short description of data set [3]: Solubility in water of the dyestuff. As for the experimental part:
(5) The wet cake obtained in above (4)was added in 1500 parts of methanol, followed by heating at 60-65° C. and stirring for 1 hr. The crystal was filtered to separate, washed with methanol and dried to obtain 42.0 parts of the compound of No.2 as a red crystal. λmax:523 nm (in water, the ammonium salt); solubility in water:100 g/l or above.
(2) The wet cake obtained in this (1) was desalted as in Example 1(5) to obtain 35.0 parts of the compound of No.5 as a red crystal. λmax:522 nm (in water, the ammonium salt); solubility in water:100 g/l or more.
(2) To the reaction solution of the above (1) was added 4.7 parts of the compound of Formula (5) (R1=CH3, R2=H) obtained as in Example 1 (1) and 1(2), followed by raising the temperature and dropping 10% aqueous sodium hydroxide at 60-65° C. to maintain the pH at 4-5 for 1 hr for the reaction. The solution was maintained for 1 hr at pH 6.5-7.0, and filtered to remove a little insoluble matter, to obtain the reaction solution containing the compound of No.15. The reaction solution was diluted with water to obtain 250 parts of the diluted solution, followed by heating at 60-65° C., adding 50 parts of sodium chloride and stirring for about 30 min to deposit crystal. After stirring for 1 hr, the crystal was filtered to separate, washed with 100 parts of 10% aqueous sodium chloride, and dried to obtain 8.9 parts of the sodium salt of the compound of No.15 as a red crystal. λmax:527 nm (in water); solubility in water:100 g/l or more.
The anthrapyridone dyestuff of the present invention is suitable for an ink-jet magenta dyestuff because it has values in hue and brightness close to those of the JNC standard magenta. The dyestuff of the present invention also, when used on a special paper, can provide good light fastness and water fastness. […] Further, the dyestuffs of No.2, No.5 and No.15 obtained in Example 1 to 3 have their water-solubilities of 100 g/l or more under an alkaline condition (pH 8-9) and therefore enable to prepare stable inks for ink-jetting. […]

Where [4] appears, read: Plain Paper (PP), color difference before/after.

Where only a bound is given, the exact number is not on record here.

For the compound `Cn1c(=O)cc2c3c(c(Nc4cc(Nc5nc(NCCS(=O)(=O)O)nc(Nc6cc(C(=O)O)cc(C(=O)O)c6)n5)ccc4S(=O)(=O)O)ccc31)C(=O)c1ccccc1-2` [No.2], the “Light fastness (ΔE)” value is recorded as “(3.6)” in data set [1] (Glossy Film (GF)), “(3.7)” in data set [1] (setting [4]), “(11.1)” in data set [1] (Special Paper A (SA)) and “(7.2)” in data set [1] (Special Paper B (SB)). For the same compound, the “Light fastness Grade” value is listed as 4 in data set [1] (Glossy Film (GF)), 4 in data set [1] (Plain Paper (PP)), 3 in data set [1] (Special Paper A (SA)) and 3-4 in data set [1] (Special Paper B (SB)). For the same compound, the “Water fastness (ΔE)” value was “(3.5)” in data set [2] (Glossy Film (GF)), “(8.6)” in data set [2] (setting [4]), “(2.2)” in data set [2] (Special Paper A (SA)) and “(5.5)” in data set [2] (Special Paper B (SB)). The “Water fastness Grade” value in data set [2] (Glossy Film (GF)) is reported as 4; in data set [2] (Plain Paper (PP)), 3-4; in data set [2] (Special Paper A (SA)), 4; in data set [2] (Special Paper B (SB)), 3-4. The compound further had a solubility in water in data set [3] of at least 100 mg/mL.

On to `Cn1c(=O)cc2c3c(c(Nc4cc(Nc5nc(NCC(=O)O)nc(Nc6cc(C(=O)O)cc(C(=O)O)c6)n5)ccc4S(=O)(=O)O)ccc31)C(=O)c1ccccc1-2` [No.5], for which the “Light fastness (ΔE)” value was “(10.6)” in data set [1] (Glossy Film (GF)), “(8.7)” in data set [1] (setting [4]), “(14.1)” in data set [1] (Special Paper A (SA)) and “(12.4)” in data set [1] (Special Paper B (SB)). The “Light fastness Grade” value in data set [1] (Glossy Film (GF)) is on record as 3-4; in data set [1] (Plain Paper (PP)) it was 3-4; in data set [1] (Special Paper A (SA)), 3; in data set [1] (Special Paper B (SB)), 3. Also, the “Water fastness (ΔE)” value is reported as “(4.6)” in data set [2] (Glossy Film (GF)), “(6.3)” in data set [2] (setting [4]), “(2.4)” in data set [2] (Special Paper A (SA)) and “(4.5)” in data set [2] (Special Paper B (SB)). Further, the “Water fastness Grade” value was 4 in data set [2] (Glossy Film (GF)), 3-4 in data set [2] (Plain Paper (PP)), 4 in data set [2] (Special Paper A (SA)) and 4 in data set [2] (Special Paper B (SB)). Besides, the solubility in water in data set [3] is at least 100 mg/mL.

`Cn1c(=O)cc2c3c(c(Nc4cc(Nc5nc(Cl)nc(Nc6cc7c(S(=O)(=O)O)cc(S(=O)(=O)O)cc7cc6S(=O)(=O)O)n5)ccc4S(=O)(=O)O)ccc31)C(=O)c1ccccc1-2` [No.15]: the “Light fastness (ΔE)” value is given as “(2.8)” in data set [1] (Glossy Film (GF)), “(8.0)” in data set [1] (setting [4]), “(21.3)” in data set [1] (Special Paper A (SA)) and “(8.9)” in data set [1] (Special Paper B (SB)). In addition, the “Light fastness Grade” value in data set [1] (Glossy Film (GF)) was 4; in data set [1] (Plain Paper (PP)), 3-4; in data set [1] (Special Paper A (SA)), 2; in data set [1] (Special Paper B (SB)), 3-4. Also, the “Water fastness (ΔE)” value is “(3.8)” in data set [2] (Glossy Film (GF)), “(58.6)” in data set [2] (setting [4]), “(1.3)” in data set [2] (Special Paper A (SA)) and “(19.3)” in data set [2] (Special Paper B (SB)). Also, the “Water fastness Grade” value in data set [2] (Glossy Film (GF)) amounted to 4; in data set [2] (Plain Paper (PP)) it was 1; in data set [2] (Special Paper A (SA)), 4; in data set [2] (Special Paper B (SB)), 2. In data set [3], this compound gave a solubility in water of at least 100 mg/mL.

These data come from patent publication US6645283B1, “Anthrapyridone compounds, water-based magenta ink composition, and method of ink-jet printing” (Nippon Kayaku Kabushiki Kaisha, priority 1998, dated 2003).
